Measured values from US6987184B2, “Isothiazoloanthrones, isoxazoloanthrones, isoindolanthrones and derivatives thereof as JNK inhibitors and compositions and methods related” (Signal Pharmaceuticals, LLC, priority 2001, dated 2006).

Columns and labels:
[1] = Brain-blood plasma distribution in vivo; design: species or system Sprague-Dawley rats; conditions: rat, 10 mg/kg intravenously, 2 hr post-dose
Experimental: Compound CC was administered intravenously (10 mg/kg) into the veins of Sprague-Dawley rats. After 2 hr, blood samples were obtained from the animals and their vascular systems were perfused with approximately 100 mL of saline to rid their brains of blood. The brains were removed from the animals, weighed, and homogenized in a 50 mL conical tube containing 10 equivalents (w/v) of methanol/saline (1:1) using a Tissue Tearer (Fischer Scientific). The homogenized material was extracted by adding 600 μL of cold methanol to 250 μL of brain homogenate vortexed for 30 sec and subjected to centrifugation for 5 min. After centrifugation, 600 μL of the resulting supernatant was transferred to a clean tube and evaporated at room temperature under reduced pressure to provide a pellet. […] The brain homogenate analysis samples, plasma analysis samples, and standard analysis samples were analyzed and compared using HPLC by injecting 100 μL of a sample onto a 5 μm C-18 Luna column (4.6 mm×150 mm, commercially available from Phenomenex of Torrance, Calif.) and eluting at 1 mL/min with a linear gradient of 30% aqueous acetonitrile containing 0.1% trifluoroacetic acid to 90% aqueous acetonitrile containing 0.1% trifluoroacetic acid over 8 minutes and holding at 90% aqueous acetonitrile containing 0.1% trifluoroacetic acid for 3 min. with absorbance detection at 450 nm. […]

[2] = system: rat ventral mesencephalan neurons; assay: [3H]Dopamine cell culture assay (6-OHDA neurotoxicity); assay type: cell-based; conditions: approximately 3×10^−6 M compound; 6-OHDA 30 μM; uptake 22 hrs after exposure; FIG. 1
Experimental: Cultures of dopaminergic neurons were prepared according to a modification of the procedure described by Raymon and Leslie (J. Neurochem. 62, 1015-1024, 1994). Time-mated pregnant rats were sacrificed on embyronic day 14-15 (crown rump length 11-12 mm) and the embryos removed by cesarean section. The ventral mesencephalon, containing the dopaminergic neurons, was dissected from each embryo. Tissue pieces from approximately 48 embryos were pooled and dissociated both enzymatically and mechanically. An aliquot from the resulting cell suspension was counted and the cells were plated in high glucose DMEM/F12 culture medium with 10% fetal bovine serum at a density of 1×10^5 cells/well of a Biocoat poly-D-lysine-coated 96-well plate. The day following plating was considered 1 day in vitro (DIV). Cells were maintained in a stable environment at 37° C., 95% humidity, and 5% CO2. A partial medium change was performed at 3 DIV. […]
[^3H]Dopamine uptake is used as a measure of the health and integrity of dopaminergic neurons in culture (Prochiantz et al., PNAS 76: 5387-5391, 1979). […] Briefly, cells treated with 6-OHDA in the presence and absence of Compound CC were assessed in the uptake assay 22 hrs after exposure to 6-OHDA. […] Radioactivity was removed and the cultures were washed 3× with ice cold PBS. […]

[3] = Solubility in aqueous media; assay type: physicochemical

- brain-drug concentration [1]: approximately 65 nmole/g
- solubility in aqueous media [3]: limited solubility
Compound: Nc1ccc2snc3c2c1C(=O)c1ccccc1-3 [Compound CC]
- protection of neurons from 6-OHDA, by [3H]dopamine uptake [2]: protects rat ventral mesencephalan neurons from the toxic effects of 6-OHDA
